Data published in patent US11760775B2, “Steroids and protein-conjugates thereof” (Regeneron Pharmaceuticals, Inc., priority 2016, dated 2023).
“And” between values parts separate entries of the source, which are not always exact repeats. Equal entries are not always repeated. Where two headings read alike, the source gives them in different places.

Experiments:
[1] = system: GR activation in 293/PRLR/GRE-Luc cells (HEK293/9xUAS-Luc2P/pBind-GR/PRLR-HA high cells); experiment: GR co-activator luciferase reporter cell based assay in 293/PRLR/GRE-Luc cells; design: species or system human
How it was run: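 EC50 was derived from a 10-point, four-parameter logistic fit of One-Glo luminescence. The reporter is driven by Gal4UAS through GR ligand-binding domain fused to Gal4 DBD in PRLR-expressing 293 cells, after ADC internalization or free steroid exposure. Activation below 10% of the free-payload maximum counts as minimal.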

[2] = system: GR activation in 293/MMTV-Luc cells; experiment: Luciferase reporter assay in 293/MMTV-Luc cells (do not express PRLR); assay type: cell-based, human; conditions: for GRE-Luc activation: 293/MMTV-Luc cells, 72 hours
From the text: In a second example, a bioassay assessed both the efficacy of free steroids as well as any nonspecific activity by anti-PRLR-ncADCs.

[3] = system: glucocorticoid receptor (GR) activation in HEK293/MMTV-luc/IL-2Rγ/IL7R cells; experiment: IL2Rγ-ncADC bioassay, MMTV luciferase reporter in HEK293/MMTV-luc/IL2Rγ/IL7R cells; assay type: cell-based, human
Experimental: (§1) HEK293 cell line was first generated to stably express a luciferase reporter pGL4.36[luc2P/MMTV/Hygro] (Promega, #E136A), referred to herein as HEK293/MMTV-luc, and maintained in DMEM containing 10% FBS, NEAA, penicillin/streptomycin/L-glutamine, and 100 μg/mL hygromycin (complete media). […] The resulting cell line referred to herein as, HEK293/MMTV-luc/IL-2Rγ/IL7R, was maintained in complete media supplemented with 1 μg/mL puromycin, and 500m/mL G418 sulfate.
(§2) For the bioassay, HEK293/MMTV-luc or HEK293/MMTV-luc/IL2Rγ/IL7R cells were seeded onto 96-well assay plates at 10,000 cells/well in complete media and incubated at 37° C. in 5% CO2 overnight. […] The concentrations were adjusted according to drug-to-antibody ratio for ncADCs and other techniques known to those of skill in the art. One well without any test article was also included as a control.
(§3) Luciferase activity was measured after 6, 24, 48, and 72 hours of incubation in 37° C. at 5% CO2 on a Victor X instrument (Perkin Elmer). The results were analyzed using nonlinear regression (4-parameter logistics) with Prism 6 software (GraphPad) to obtain EC50 values. Fold activation was calculated by determining the ratio of the luciferase activity of each sample to that observed without any test article added

[4] = system: glucocorticoid receptor (GR) activation in HEK293/MMTV-Luc cells; experiment: MMTV luciferase reporter bioassay in parental HEK293/MMTV-luc cells; assay type: cell-based, human; conditions: 72 hrs of incubation
Experimental: as §1, §2, §3

[5] = system: GR activation in 293/GRE-Luc cells (293_PBind GR/UAS-Luc); experiment: Luciferase reporter assay in antigen negative 293/GRE-Luc cells; assay type: cell-based, human; conditions: read-out: EC50 in 293/GRE-Luc; 72 hrs of incubation; antigen negative cells
[6] = Pharmacokinetics of 4b and 6-I in mice (blood concentration-time); assay type: in vivo, C57BL/6j mice; conditions: IP, 1 mg/Kg in male C57BL/6 mice; Mean
[7] = system: LPS-induced cytokine release (TNF-α); experiment: Mouse model of LPS induced cytokine release (TNF-α in plasma); assay type: in vivo, C57BL/6j mice
[8] = system: CD11c+ splenic DCs; experiment: Ex vivo LPS-induced cytokine production in mouse splenic CD11c+ dendritic cells; assay type: cell-based, C57Bl/6 mice; design: TNF-a / IL-12p70 / IL-1b / IL-6 / KC-GRO: unit not given here
Experimental: (§4) Supernatants were collected into 96-well round bottom tissue culture plates 24 hours post-LPS challenge and stored at −20° C. until further analysis. Cytokine concentrations in the supernatants were measured using a Pro-inflammatory Panel 1 (mouse) multiplex immunoassay kit (MesoScale Discovery, Cat #K15048D) according to manufacturer's instructions or Pro-inflammatory Panel 1 (human) multiplex immunoassay kit (MesoScale Discovery, Cat #K15049D). In brief, 50 μL/well of calibrators and samples (diluted in Diluent 1:2) were added to the plates pre-coated with capture antibodies and incubated at room temperature while shaking at 700 rpm for 2 hours. The plates were then washed 3 times with 1×PBS containing 0.05% (w/v) Tween-20, followed by the addition of 25 μL of Detection Antibody Solution diluted in Diluent 45. After 2-hour incubation at room temperature while shaking, the plates were washed 3 times, and 150 μL of 2× Read Buffer was added to each well. Electrochemiluminescence was immediately read on a MSD Spector® instrument. Data analysis was performed using GraphPad Prism™ software. Statistical significance within the groups was determined by one-way Anova with Turkey's multiple comparison post-test and standard error of mean (SEM±) calculated.

[9] = system: human monocyte derived-DC; experiment: Ex vivo LPS-induced cytokine production in human monocyte derived DCs; assay type: cell-based; design: IL-6 / IL-8 / TNF-a / IL-12p70 / IL-1b: unit not given here
Experimental: The complete-RPMI with IL4 and GM-CSF was changed every three days. […]
as §4

[10] = 293/PRLR/GRE-Luc cells, 72 hours
[11] = 6, 24, and 48 hours of incubation
[12] = read-out: EC50 in 293/PRLR/GRE-Luc, 72 hrs of incubation

CCCC1O[C@@H]2C[C@H]3[C@@H]4CCC5=CC(=O)C=C[C@]5(C)[C@H]4[C@@H](O)C[C@]3(C)[C@]2(C(=O)COc2ccc(N)cc2)O1 (stereo in doubt) [Compound 11-5]
Fold Activation [1, 10]: Full | GRE-Luc activation [1, 10]: full GRE-Luc activation | EC50 ([1]; Homo sapiens, HEK293, 72 h, read-out: EC50 of GRE-Luc activation): < 10 nM | GRE-Luc activation [2]: full GRE-Luc activation | EC50 ([2]; Homo sapiens, 72 h, read-out: EC50 of GRE-Luc activation): 10 to 100 nM | GR activation [3, 11]: partial activation | Fold Activation ([3]; 6 hours): Partial | Fold Activation ([3]; 24 hours): Partial | Maximum fold activation ([3]; 24 hrs of incubation): relatively lower levels of activation compared to budesonide | Fold Activation ([3]; 48 hours): Partial | Fold Activation ([3]; 72 hours): Full | GR activation ([3]; 72 hours of incubation): full activations | EC50 ([3]; Homo sapiens, HEK293, 6 h): > 100 nM | EC50 ([3]; Homo sapiens, HEK293, 24 h): > 100 nM | EC50 ([3]; Homo sapiens, HEK293, 48 h): 10 to 100 nM | EC50 ([3]; Homo sapiens, HEK293, read-out: EC50 of GR activation): 10 to 100 nM | EC50 potency class ([3]; at 24 hours): + (+: >100 nM) | EC50 potency class ([3]; at 48 hours): ++ (++: 10-100 nM) | Activation in HEK293/MMTV-Luc cells [4]: showed activation

CCCC1O[C@@H]2C[C@H]3[C@@H]4CCC5=CC(=O)C=C[C@]5(C)[C@H]4[C@@H](O)C[C@]3(C)[C@]2(C(=O)CO)O1 (stereo partly drawn) [Budesonide, budesonide, reference compound]
GRE-Luc activation [1, 10]: full GRE-Luc activation | EC50 ([1]; 293/PRLR/GRE-Luc cells, 72 hours, read-out: EC50): < 10 nM | EC50 ([1]; 293/PRLR/GRE-Luc cells, 72 hours, read-out: EC50 of GRE-Luc activation): < 10 nM | EC50 ([1]; 72 hours of incubation, read-out: HEK293/9xUAS-Luc2P/pBind-GR/PRLR-HA high cells EC50): < 10 nM | EC50 [1, 12]: 5 to 10 nM | EC50 ([1]; read-out: HEK293/9xUAS-Luc2P/pBind-GR/PRLR-HA high cells EC50): < 10 nM | GRE-Luc activation [2]: full GRE-Luc activation | GR activation [3, 11]: […] | EC50 ([3]; 6 hours, read-out: EC50): […] | EC50 ([3]; 24 hours, read-out: EC50): […] | EC50 ([3]; 48 hours, read-out: EC50): […] | EC50 ([3]; 72 hours, read-out: EC50): […] | EC50 ([3]; HEK293/MMTV-luc/IL-2Rγ/IL7R cells, read-out: EC50 of GR activation): […] | Activation in HEK293/MMTV-Luc cells [4]: showed activation | EC50 [5]: < 5 nM

C[C@@H]1C[C@H]2[C@@H]3CCC4=CC(=O)C=C[C@]4(C)[C@@]3(F)[C@@H](O)C[C@]2(C)[C@@]1(O)C(=O)CO [Dexamethasone, dexamethasone, reference compound]
EC50 [1, 12]: < 5 nM | EC50 [5]: < 5 nM | AUCINF [6]: 562 ng·h/mL | AUClast [6]: 545 ng·h/mL | Cmax [6]: 231 ng/mL | Inhibition of TNF-α production ([7]; 5 mpk ip before LPS challenge, plasma at 2 hr time point): significantly inhibit TNF-α | TNF-a ([7]; plasma 2 hr post LPS challenge, 5MPK ip (−2 h) prior to LPS, individual mice, listed as DEX): 644.3 pg/mL and 508.5 pg/mL and 487.1 pg/mL | IL-1b ([8]; 10 nM + LPS): 34.76 ± 4.33 | IL-6 ([8]; 10 nM + LPS): 714.89 ± 77.13 | IL-12p70 ([8]; 10 nM + LPS): 30.41 ± 3.22 | KC-GRO ([8]; 10 nM + LPS): 399.40 ± 49.75 | TNF-a ([8]; 10 nM + LPS): 2496.27 ± 415.75 | LPS-induced cytokine responses in CD11c+ DCs ([8]; 10 nM and 100 nM for 24 hours before LPS 10 ng/mL): significantly decreased LPS-induced cytokine responses | IL-1b ([8]; 10 nM, no LPS): 6.299 ± 0.33 | IL-6 ([8]; 10 nM, no LPS): 98.93 ± 8.98 | IL-12p70 ([8]; 10 nM, no LPS): 8.55 ± 1.08 | KC-GRO ([8]; 10 nM, no LPS): 75.75 ± 8.03 | TNF-a ([8]; 10 nM, no LPS): 0 ± 0 | IL-1b ([8]; 100 nM + LPS): 10.58 ± 0.88 | IL-6 ([8]; 100 nM + LPS): 303.48 ± 11.37 | IL-12p70 ([8]; 100 nM + LPS): 9.29 ± 3.28 | KC-GRO ([8]; 100 nM + LPS): 233.49 ± 18.48 | TNF-a ([8]; 100 nM + LPS): 405.49 ± 70.23 | IL-1b ([8]; 100 nM, no LPS): 5.25 ± 0.12 | IL-6 ([8]; 100 nM, no LPS): 55.07 ± 1.76 | IL-12p70 ([8]; 100 nM, no LPS): 6.05 ± 1.13 | KC-GRO ([8]; 100 nM, no LPS): 65.99 ± 2.75 | TNF-a ([8]; 100 nM, no LPS): 0 ± 0 | IL-1b [9]: 0.625 ± 0.006 | Pro-inflammatory cytokine production ([9]; Condition 1: entire 7-day conditioning period): significantly reduced pro-inflammatory cytokine production | IL-1b ([9]; Condition 1, 10 nM + LPS): 1.77 ± 0.11 | IL-6 ([9]; Condition 1, 10 nM + LPS): 687.45 ± 2.17 | IL-8 ([9]; Condition 1, 10 nM + LPS): 8789.98 ± 126.98 | IL-12p70 ([9]; Condition 1, 10 nM + LPS): 4.83 ± 0.05 | TNF-a ([9]; Condition 1, 10 nM + LPS): 242.34 ± 10.75 | IL-6 ([9]; Condition 1, 10 nM, no LPS): 2.68 ± 0.03 | IL-8 ([9]; Condition 1, 10 nM, no LPS): 174.59 ± 0.68 | IL-12p70 ([9]; Condition 1, 10 nM, no LPS): 0.65 ± 0.02 | TNF-a ([9]; Condition 1, 10 nM, no LPS): 2.32 ± 0.098 | Production of IL12p70, IL6 and TNF-α ([9]; Condition 2: conditioning of mature monocyte-derived DCs): significantly decreased the production of IL12p70, IL6 and TNF-α | IL-1b ([9]; Condition 2, 10 nM + LPS): 37.88 ± 1.90 | IL-6 ([9]; Condition 2, 10 nM + LPS): 5747.37 ± 234.08 | IL-8 ([9]; Condition 2, 10 nM + LPS): 3314.0 ± 37.86 | IL-12p70 ([9]; Condition 2, 10 nM + LPS): 6.32 ± 1.69 | TNF-a ([9]; Condition 2, 10 nM + LPS): 994.92 ± 73.66 | IL-1b ([9]; Condition 2, 10 nM, no LPS): 0.611 ± 0.003 | IL-6 ([9]; Condition 2, 10 nM, no LPS): 14.76 ± 0.267 | IL-8 ([9]; Condition 2, 10 nM, no LPS): 288.23 ± 6.02 | IL-12p70 ([9]; Condition 2, 10 nM, no LPS): 0.64 ± 0.03 | TNF-a ([9]; Condition 2, 10 nM, no LPS): 1.73 ± 0.02
